In series [1] the test system is USA WA-01 strain of SARS CoV-2. Description: Anti-coronavirus activity in Vero E6 cells, qPCR of spike RNA (Example 2). Format: cell-based. Here is the method: Ten thousand Vero E6 cells were seeded in 100 microliters of culture medium in 96 well plates. The following day serial two-fold dilutions of antiviral compounds or the DMSO-containing vehicle were added to each well. The USA WA-01 strain of SARS CoV-2 was added to each well at a multiplicity of infection of 0.1 thirty minutes later. Cells were incubated for 48 hours, washed twice in PBS and lysed with TRIzol. RNA was extracted using Directzol micro RNA columns. RNA was made into cDNA and assayed for the SARS CoV-2 spike protein and for a housekeeping gene (RPLPO) RNA by qPCR. Data represents the average of duplicate wells. Cellular cytotoxicity was also measured in VERO E6 cells. […] Cytotoxicity (CC50) was assessed using a commercially available MTT assay.
Background: Real-time PCR tracks product formation cycle by cycle.

The test system of another series is HCoV-229E. The format is cell-based, human Coronavirus 229E.
For a further series, the system named is TMPRSS2-Vero cells. Description: Cytotoxicity in TMPRSS2-Vero cells, nuclei count (Example 6). Format: cell-based.
Series [2] concerns SARS-CoV-2 isolate USA-WA1/2020. Description: SARS-CoV-2 infection in PSC-human lung cells, qRT-PCR (Example 7). Format: cell-based.
For series [3] the test system is unchanged. Put plainly: SARS-CoV-2 infection in Huh7.5 cells, qRT-PCR (Example 7). Format: cell-based.
Series [4] can be described thus: Seven day oral pharmacokinetics in Syrian hamsters. The format is in vivo. Here is the method:
ODBG-P-RVn in 0.1M sodium carbonate/bicarbonate buffer, pH 9.0, was administered to Syrian Hamsters by oral gavage every 12 hours for seven days. ODBG-P-RVn was present as the sodium salt.
FIG. 4A and FIG. 4B depict the seven day oral pharmacokinetics in Syrian hamsters. Syrian hamsters were given vehicle or ODBG-P-RVn by oral gavage every 12 hours for 7 days. Groups of 3 animals received vehicle or drug at doses of 16.9 and 13.2 mg/kg. Animals were weighed daily and monitored for clinical signs.
Analytical Methods: ODBG-P-RVn: Hamster plasma samples (10 μL) containing ODBG-P-RVn and K2EDTA as the anticoagulant were added to polypropylene tubes containing water (100 μL), internal standard solution (10 μL; 1,000 ng/mL of ODE-P-RVn in ACN:DMF (1:1, v/v)), and 10 μL of ACN:DMF (1:1, v/v). The solutions were mixed, then acidified with phosphoric acid, 85% w/v:water (1:19, v/v; 10 μL), mixed, then diluted with 200 μL of IPA, mixed, then diluted with 500 μL of water, and mixed. The samples were extracted with a Sep-Pak® tC18 96-well solid phase extraction plate (25 mg; Waters, Milford, MA). Extraction occurred under positive pressure conditions using nitrogen. Samples were washed serially with 1 mL of water:acetonitrile:formic acid (475:25:0.5, v/v/v) and 0.4 mL of water:acetonitrile:formic acid (350:150:0.5, v/v/v) before being serially eluted with 100 μL and 150 μL of water:{acetonitrile:isopropyl alcohol (1:1, v/v)}:formic acid:ammonium formate:citric acid solution, 2% w/v (15:85:0.1:0.1:0.1, v/v/v/w/v). The citric acid solution was prepared as water:citric acid monohydrate (20:0.4, v/w). After elution, 100 μL of water was added to each sample. The ODBG-P-RVn extracts were analyzed using an Agilent 1200 HPLC system (Agilent, Santa Clara, CA) coupled to an API5500 mass analyzer (SCIEX, Foster City, CA). Analytes were chromatographically separated using a Dacapo DX-C18 MF column (100×2 mm, 2.5 μm; ImtaktUSA, Portland, OR) using a mobile phase system consisting of Mobile Phase A (water:formic acid:[water:ammonium formate:citric acid (25:5:0.5, v/w/w)](1.000:1:1, v/v/v) and Mobile Phase B (acetonitrile:isopropyl alcohol:formic acid:[water:ammonium formate:citric acid (25:5:0.5, v/w/w)](800:200:1:1, v/v/v/v). The total analytical run time was 4.5 minutes. The mobile phase was nebulized using heated nitrogen in a Turbo-V source/interface set to electrospray positive ionization mode. The ionized compounds were detected using multiple reaction monitoring with transitions m/z 788.4>229 (V2043) and 668.4>467.2 (V2041). This method is applicable for measuring ODBG-P-RVn concentrations ranging from 6.25 to 3,000 ng/mL using 10.0 μL of plasma for extraction. The peak areas of ODBG-P-RVn and RVn were acquired using Analyst v. 1.6.2 (SCIEX, Framingham, MA). The calibration curve was obtained by fitting the peak area ratios of the analyte/I.S. and the standard concentrations to a linear equation with 1/x2 weighting, using Analyst. The equation of the calibration curve was then used to interpolate the concentrations of the analyte in the samples using their peak area ratios. The peak areas used for the calculations were not rounded.
The solutions were mixed and centrifuged at 16,000 g for five minutes. […] The GS-441524 extracts were analyzed using an Acquity UPLC system (Waters, Milford, MA) coupled to a G2-S QTof mass analyzer (Waters, Milford, MA). […]

The test system of another series is Hep-2 cells. Description: Cell viability assay for the RSV table (CC50). Format: cell-based.
For series [5], the system named is Calu-3 cells. Put plainly: Cell viability assay CellTiter-Glo, Calu-3 cells (Example 7). The conditions noted are these: Calu-3 cells, CellTiter-Glo. Background: ATP-based viability assays read luminescence as a measure of living cells.
The subject of a further series is Huh7.5 cells. Description: Cell viability assay CellTiter-Glo, Huh7.5 cells (Example 7).
Another series deals with PSC-human lung cells. Description: Cell viability assay CellTiter-Glo, PSC-human lung cells (Example 7).
In series [6] the test system is Calu-3 cells. Put plainly: Cytotoxicity in Calu-3 cells, nuclei count or CellTiter-Glo (Example 6). The conditions noted are these: for select compounds up to 100 μM by CellTiter-Glo.
Description: After which an equal volume of CellTiter-Glo reagent (Cat. #G7570, Promega, Madison, WI) was added, mixed and luminescence recorded on a Veritas Microplate Luminometer (Turner BioSystems) according to manufacturer recommendations.
The next series concerns SARS-CoV-2. Description: SARS-CoV-2 infection assay in Calu-3 cells, nucleocapsid immunofluorescence (Example 6). The conditions noted are these: MOI 0.01, 44 hour.
[7] abbreviates: Vero E6 cells, MOI 0.1, 48 hours.

The term EC50 denotes the midpoint of the concentration-response curve. Low values mean a more potent agent, high ones a less potent agent. Usually EC90 stands for the concentration at which the effect reaches the 90% level. A low value points to greater potency. As usually defined, the CC50 is the concentration that lowers cell viability or growth by half.

With `CCCCCCCCCCCCCCCCCCOC[C@H](COP(=O)(O)OC[C@H]1O[C@@](C#N)(c2ccc3c(N)ncnn23)[C@H](O)[C@@H]1O)OCc1ccccc1` [Compound 15d, 1-O-octadecyl-2-O-benzyl-sn-glyceryl-phospho-RVn], in series [1] (CC50/EC50, Vero E6), the “Selectivity Index” value is above 238. Besides, the EC50 in series [1] (setting [7]) worked out at 210 nM; with HCoV-229E, 100 nM; in [3] (Huh7.5 cells, MOI 0.01, 48 hours, qRT-PCR (Example 7), listed as ODBG-P-RVn), 140 nM; in the series with SARS-CoV-2 it was 164 ± 20 nM. Further, the EC90 amounted to 560 nM in [1] (setting [7]); 280 ± 13 nM in the series with HCoV-229E; 260 nM in [2] (PSC-human lung cells, MOI 0.01, 48 hours); 150 nM in series [3] (Huh7.5 cells, MOI 0.01, 48 hours, qRT-PCR (Example 7)); 536 ± 138 nM in the series with SARS-CoV-2. Moreover, the CC50 in the series on TMPRSS2-Vero cells is above 20000 nM; with Hep-2 cells, 14700 nM; in the series on MRC-5 cells it was 43100 ± 18900 nM; with Calu-3 cells [5], 98200 nM; with Huh7.5 cells it was 62900 nM; with PSC-human lung cells it was 61500 nM. This molecule registered a CC50 in the series with Calu-3 cells [6] above 20000 nM. Also, the Selectivity came out at 410 in [2] (CC50/EC50, PSC-human lung cells) and 449 in [3] (CC50/EC50, Huh7.5 cells). For the same molecule, in series [4] (day 1 and 7), the “ODBG-P-RVn plasma levels at 12 hours versus EC90 in all cell lines studied” value is recorded as “above the EC90”. For the same molecule, the “time in which plasma levels fell by 50%” value in series [4] (hamster, in vivo, po) is listed as “about 5 hours”. The “tolerability, clinical signs” value in [4] (oral gavage every 12 hours for seven days) is given as “well tolerated”.

The values above are taken from patent US12594292B2, “Antiviral prodrugs, intermediate-and long-acting formulations and methods” (priority 2022, dated 2026).
